Test results from patent US20250108038A1 (priority 2023, published 2025).
Where “and” joins values, the source holds several entries; their conditions need not be identical. Equal values may be shown once.

Test system: Long Evans rats
Test: Behavioral satiety sequence (BSS)
Format: in vivo, Long Evans rat
Text: The Behavioural Satiety Sequence (BSS) is a technique used to evaluate physiological satiety. It is based on the expression of a sequence of behaviors including eating, grooming, locomotor activity, followed by resting, which are typically observed in rodents post-ingestion (Halford et al, 1998, Pharmacology Biochemistry and Behaviour. 61(2): 159-168). The BSS is a widely used model for determining the effects of novel pharmaceuticals on food intake and measures of satiety in rodents (Oliveira et al, 2011, Revista de Nutrição. 24(4) 619-628), and to discriminate the cause of reduced food intake following pharmacological manipulation. For example, treatments that may reduce food intake by non-specific mechanisms, such as immobility, malaise, and taste adulteration, will disrupt this sequence (Halford et al, 1998, Pharmacology Biochemistry and Behaviour. 61(2): 159-168).
Specifically, 12 male Long-Evans rats were food-deprived for 22 h with a 2 h feeding period each day. Rats were trained to consume daily food during the 2 h period over 25 days. The testing phase was initiated once the rats consistently consumed 16-18 g of food per day with ≤10% variance in amount of feed consumed. Feeding took place in designated individual boxes in a quiet room separate from the housing room. Continuous remote monitoring via video camera during feeding was used to assess the BSS. Food consumption was measured by weighing the total available food before and after the 2 h feeding window, correcting for spillage. Lorcaserin (1 mg/kg) was included as a reference control (Higgins et al, 2011, Neuropsychopharmacology. 37(5): 1177-1191). Subjects were tested using a repeated-measures, Latin square design with 2-3 days wash-out between treatment cycles.
On scheduled test days, animals were monitored remotely via video camera during the feeding access period. The occurrence of four mutually exclusive behaviors (eating/drinking, grooming, active, rest) were individually scored. Over the 2 h feeding period, behaviors were assessed every 30 seconds. Scores were compiled into 23 5 min timebins (timebin 24 was removed due to early removal of animals) and the frequency of each behavior within each timebin was calculated to determine a temporal frequency of each measure (Rodgers et al, 2010, Pharmacology Biochemistry and Behaviour. 97: 3-14). Percentage time was plotted for each behavioral sequence in each timebin to compare between treatment groups (Higgins et al, 2011, Neuropsychopharmacology. 37(5): 1177-1191).

[1] = Compound I-19 1 mg/kg, AVG of 12 animals
[2] = Compound I-19 1 mg/kg, raw score of individual animals LT-1 to LT-12
[3] = Compound I-19 3 mg/kg i.p., AVG of the group
[4] = Compound I-19 3 mg/kg i.p., raw score per animal

Clc1ccc(C2(OCC3OCCO3)c3ccccc3C3=NCCN32)cc1 (stereo not drawn) [Compound I-19]
BSS scoring R (resting), Time Bin 13 (60-65 TOTAL), AVG [1]: 0.13 | BSS scoring R (resting), Time Bin 14 (65-70 TOTAL), AVG [1]: 0.10 | BSS scoring R (resting), Time Bin 15 (70-75 TOTAL), AVG [1]: 0.13 | BSS scoring R (resting), Time Bin 16 (75-80 TOTAL), AVG [1]: 0.18 | BSS scoring R (resting), Time Bin 17 (80-85 TOTAL), AVG [1]: 0.14 | BSS scoring R (resting), Time Bin 18 (85-90 TOTAL), AVG [1]: 0.30 | BSS scoring A (active), Time Bin 13 (60-65 TOTAL) [2]: 2 and 1 (3×) and 0 (6×) and 3 (2×) | BSS scoring A (active), Time Bin 14 (65-70 TOTAL) [2]: 0 (4×) and 1 (4×) and 2 and 3 (2×) and 4 | BSS scoring A (active), Time Bin 15 (70-75 TOTAL) [2]: 0 (4×) and 2 (4×) and 1 (2×) and 5 (2×) | BSS scoring A (active), Time Bin 16 (75-80 TOTAL) [2]: 1 (3×) and 2 and 0 (5×) and 4 (2×) and 6 | BSS scoring A (active), Time Bin 17 (80-85 TOTAL) [2]: 9 and 0 (5×) and 4 and 2 and 3 and 1 (3×) | BSS scoring A (active), Time Bin 18 (85-90 TOTAL) [2]: 1 (3×) and 0 (5×) and 4 and 3 and 2 (2×) | BSS scoring E (eating/drinking), Time Bin 13 (60-65 TOTAL) [2]: 8 (2×) and 6 (3×) and 10 (3×) and 0 and 9 (2×) and 5 | BSS scoring E (eating/drinking), Time Bin 14 (65-70 TOTAL) [2]: 10 (3×) and 8 (2×) and 9 and 1 and 7 (3×) and 5 and 6 | BSS scoring E (eating/drinking), Time Bin 15 (70-75 TOTAL) [2]: 10 (2×) and 8 (3×) and 7 (2×) and 6 and 3 (2×) and 4 (2×) | BSS scoring E (eating/drinking), Time Bin 16 (75-80 TOTAL) [2]: 7 (3×) and 9 (2×) and 10 (2×) and 0 and 1 and 8 and 6 and 3 | BSS scoring E (eating/drinking), Time Bin 17 (80-85 TOTAL) [2]: 1 (2×) and 10 (3×) and 6 and 8 (2×) and 0 and 9 (3×) | BSS scoring E (eating/drinking), Time Bin 18 (85-90 TOTAL) [2]: 9 (2×) and 6 and 7 (3×) and 1 (2×) and 0 (2×) and 8 and 10 | BSS scoring G (grooming), Time Bin 13 (60-65 TOTAL) [2]: 0 (7×) and 2 (2×) and 1 (3×) | BSS scoring G (grooming), Time Bin 14 (65-70 TOTAL) [2]: 0 (8×) and 1 (4×) | BSS scoring G (grooming), Time Bin 15 (70-75 TOTAL) [2]: 0 (9×) and 1 and 3 and 2 | BSS scoring G (grooming), Time Bin 16 (75-80 TOTAL) [2]: 2 and 1 and 0 (10×) | BSS scoring G (grooming), Time Bin 17 (80-85 TOTAL) [2]: 0 (11×) and 1 | BSS scoring G (grooming), Time Bin 18 (85-90 TOTAL) [2]: 0 (8×) and 1 (4×) | BSS scoring R (resting), Time Bin 13 (60-65 TOTAL) [2]: 0 (7×) and 1 (3×) and 10 and 2 | BSS scoring R (resting), Time Bin 14 (65-70 TOTAL) [2]: 0 (8×) and 8 and 2 and 1 (2×) | BSS scoring R (resting), Time Bin 15 (70-75 TOTAL) [2]: 0 (5×) and 2 (2×) and 1 (3×) and 4 and 5 | BSS scoring R (resting), Time Bin 16 (75-80 TOTAL) [2]: 0 (6×) and 2 (2×) and 10 and 5 and 1 (2×) | BSS scoring R (resting), Time Bin 17 (80-85 TOTAL) [2]: 0 (9×) and 2 and 5 and 10 | BSS scoring R (resting), Time Bin 18 (85-90 TOTAL) [2]: 0 (5×) and 1 (2×) and 2 and 7 (2×) and 8 and 10 | BSS scoring A (active), Time Bin 1 (0-5 TOTAL), AVG [3]: 0.11 | BSS scoring A (active), Time Bin 2 (5-10 TOTAL), AVG [3]: 0.02 | BSS scoring A (active), Time Bin 3 (10-15 TOTAL), AVG [3]: 0.11 | BSS scoring A (active), Time Bin 4 (15-20 TOTAL), AVG [3]: 0.13 | BSS scoring A (active), Time Bin 5 (20-25 TOTAL), AVG [3]: 0.06 | BSS scoring A (active), Time Bin 6 (25-30 TOTAL), AVG [3]: 0.11 | BSS scoring E (eating/drinking), Time Bin 1 (0-5 TOTAL), AVG [3]: 0.86 | BSS scoring E (eating/drinking), Time Bin 2 (5-10 TOTAL), AVG [3]: 0.93 | BSS scoring E (eating/drinking), Time Bin 3 (10-15 TOTAL), AVG [3]: 0.87 | BSS scoring E (eating/drinking), Time Bin 4 (15-20 TOTAL), AVG [3]: 0.83 | BSS scoring E (eating/drinking), Time Bin 5 (20-25 TOTAL), AVG [3]: 0.88 | BSS scoring E (eating/drinking), Time Bin 6 (25-30 TOTAL), AVG [3]: 0.84 | BSS scoring G (grooming), Time Bin 1 (0-5 TOTAL), AVG [3]: 0.03 | BSS scoring G (grooming), Time Bin 2 (5-10 TOTAL), AVG [3]: 0.03 | BSS scoring G (grooming), Time Bin 3 (10-15 TOTAL), AVG [3]: 0.01 | BSS scoring G (grooming), Time Bin 4 (15-20 TOTAL), AVG [3]: 0.02 | BSS scoring G (grooming), Time Bin 5 (20-25 TOTAL), AVG [3]: 0.05 | BSS scoring G (grooming), Time Bin 6 (25-30 TOTAL), AVG [3]: 0.01 | BSS scoring R (resting), Time Bin 1 (0-5 TOTAL), AVG [3]: 0.00 | BSS scoring R (resting), Time Bin 2 (5-10 TOTAL), AVG [3]: 0.02 | BSS scoring R (resting), Time Bin 3 (10-15 TOTAL), AVG [3]: 0.02 | BSS scoring R (resting), Time Bin 4 (15-20 TOTAL), AVG [3]: 0.02 | BSS scoring R (resting), Time Bin 5 (20-25 TOTAL), AVG [3]: 0.02 | BSS scoring R (resting), Time Bin 6 (25-30 TOTAL), AVG [3]: 0.04 | BSS scoring A (active), Time Bin 1 (0-5 TOTAL) [4]: 2 and 1 (8×) and 3 and 0 (2×) | BSS scoring A (active), Time Bin 2 (5-10 TOTAL) [4]: 1 (2×) and 0 (10×) | BSS scoring A (active), Time Bin 3 (10-15 TOTAL) [4]: 2 (4×) and 1 (2×) and 0 (5×) and 3 | BSS scoring A (active), Time Bin 4 (15-20 TOTAL) [4]: 0 (6×) and 3 (2×) and 2 and 6 and 1 (2×) | BSS scoring A (active), Time Bin 5 (20-25 TOTAL) [4]: 1 (7×) and 0 (5×) | BSS scoring A (active), Time Bin 6 (25-30 TOTAL) [4]: 2 (2×) and 1 (5×) and 0 (4×) and 4 | BSS scoring E (eating/drinking), Time Bin 1 (0-5 TOTAL) [4]: 8 (4×) and 9 (6×) and 7 and 10 | BSS scoring E (eating/drinking), Time Bin 2 (5-10 TOTAL) [4]: 8 (3×) and 10 (7×) and 9 (2×) | BSS scoring E (eating/drinking), Time Bin 3 (10-15 TOTAL) [4]: 8 (4×) and 9 (2×) and 10 (4×) and 7 (2×) | BSS scoring E (eating/drinking), Time Bin 4 (15-20 TOTAL) [4]: 9 (2×) and 7 (2×) and 10 (4×) and 8 (3×) and 4 | BSS scoring E (eating/drinking), Time Bin 5 (20-25 TOTAL) [4]: 9 (4×) and 10 (3×) and 8 (4×) and 7 | BSS scoring E (eating/drinking), Time Bin 6 (25-30 TOTAL) [4]: 8 (2×) and 9 (3×) and 10 (4×) and 5 and 7 and 6 | BSS scoring G (grooming), Time Bin 1 (0-5 TOTAL) [4]: 0 (9×) and 1 (2×) and 2 | BSS scoring G (grooming), Time Bin 2 (5-10 TOTAL) [4]: 1 (2×) and 0 (9×) and 2 | BSS scoring G (grooming), Time Bin 3 (10-15 TOTAL) [4]: 0 (11×) and 1 | BSS scoring G (grooming), Time Bin 4 (15-20 TOTAL) [4]: 0 (10×) and 1 (2×) | BSS scoring G (grooming), Time Bin 5 (20-25 TOTAL) [4]: 0 (6×) and 1 (6×) | BSS scoring G (grooming), Time Bin 6 (25-30 TOTAL) [4]: 0 (11×) and 1 | BSS scoring R (resting), Time Bin 1 (0-5 TOTAL) [4]: 0 | BSS scoring R (resting), Time Bin 2 (5-10 TOTAL) [4]: 0 (10×) and 1 (2×) | BSS scoring R (resting), Time Bin 3 (10-15 TOTAL) [4]: 0 (11×) and 2
